From ChEMBL document CHEMBL2074062, “Active intestinal secretion of new quinolone antimicrobials and the partial contribution of P-glycoprotein” (J Pharm Pharmacol, 2001)

Key:
[1] = target: ATP-dependent translocase ABCB1 (Homo sapiens, UniProt P08183); experiment: TP_TRANSPORTER: transepithelial transport (basal to apical) in MDR1-expressing LLC-PK1 cells; assay type: functional, cell-based; settings: pig
[2] = target: ATP-dependent translocase ABCB1 (Mus musculus, UniProt P21447); experiment: TP_TRANSPORTER: decrease in intestinal clearance in mdr1a(-/-) mouse; assay type: functional, tissue-based, Intestine
ATP-dependent translocase ABCB1 (Mus musculus, UniProt P21447), sequence (P21447 whole entry): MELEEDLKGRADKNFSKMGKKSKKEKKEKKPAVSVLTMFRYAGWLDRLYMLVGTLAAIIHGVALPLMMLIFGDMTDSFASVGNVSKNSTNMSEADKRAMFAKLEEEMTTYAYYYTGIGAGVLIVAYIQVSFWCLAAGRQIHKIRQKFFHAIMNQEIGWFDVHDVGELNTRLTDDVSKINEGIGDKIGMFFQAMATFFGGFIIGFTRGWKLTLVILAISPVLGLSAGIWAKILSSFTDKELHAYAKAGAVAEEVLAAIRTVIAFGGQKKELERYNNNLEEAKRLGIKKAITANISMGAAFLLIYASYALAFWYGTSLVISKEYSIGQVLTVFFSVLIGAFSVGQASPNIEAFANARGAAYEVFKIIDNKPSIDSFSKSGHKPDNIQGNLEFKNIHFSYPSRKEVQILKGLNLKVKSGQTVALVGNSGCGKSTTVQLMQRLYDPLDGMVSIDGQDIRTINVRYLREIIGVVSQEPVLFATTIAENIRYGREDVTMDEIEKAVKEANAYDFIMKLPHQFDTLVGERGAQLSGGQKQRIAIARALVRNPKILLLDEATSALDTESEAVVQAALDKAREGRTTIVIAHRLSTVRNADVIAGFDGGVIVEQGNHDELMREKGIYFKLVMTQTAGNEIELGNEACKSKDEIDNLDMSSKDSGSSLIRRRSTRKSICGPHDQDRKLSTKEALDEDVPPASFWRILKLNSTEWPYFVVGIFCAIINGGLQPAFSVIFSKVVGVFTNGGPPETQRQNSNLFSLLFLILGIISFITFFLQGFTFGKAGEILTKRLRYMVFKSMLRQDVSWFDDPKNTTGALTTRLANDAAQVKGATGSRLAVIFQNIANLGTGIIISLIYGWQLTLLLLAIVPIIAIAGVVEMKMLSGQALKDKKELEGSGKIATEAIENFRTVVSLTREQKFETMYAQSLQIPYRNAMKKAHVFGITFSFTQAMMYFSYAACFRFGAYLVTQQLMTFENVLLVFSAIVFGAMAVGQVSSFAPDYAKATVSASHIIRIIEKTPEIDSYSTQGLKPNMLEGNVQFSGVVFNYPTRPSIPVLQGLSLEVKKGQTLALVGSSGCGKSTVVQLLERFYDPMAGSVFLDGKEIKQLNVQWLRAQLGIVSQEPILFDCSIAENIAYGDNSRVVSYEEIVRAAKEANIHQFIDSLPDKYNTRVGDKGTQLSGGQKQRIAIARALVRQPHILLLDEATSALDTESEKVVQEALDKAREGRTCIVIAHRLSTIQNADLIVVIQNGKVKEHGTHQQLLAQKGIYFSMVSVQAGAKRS

ATP-dependent translocase ABCB1 (Homo sapiens, UniProt P08183), sequence (P08183 whole entry): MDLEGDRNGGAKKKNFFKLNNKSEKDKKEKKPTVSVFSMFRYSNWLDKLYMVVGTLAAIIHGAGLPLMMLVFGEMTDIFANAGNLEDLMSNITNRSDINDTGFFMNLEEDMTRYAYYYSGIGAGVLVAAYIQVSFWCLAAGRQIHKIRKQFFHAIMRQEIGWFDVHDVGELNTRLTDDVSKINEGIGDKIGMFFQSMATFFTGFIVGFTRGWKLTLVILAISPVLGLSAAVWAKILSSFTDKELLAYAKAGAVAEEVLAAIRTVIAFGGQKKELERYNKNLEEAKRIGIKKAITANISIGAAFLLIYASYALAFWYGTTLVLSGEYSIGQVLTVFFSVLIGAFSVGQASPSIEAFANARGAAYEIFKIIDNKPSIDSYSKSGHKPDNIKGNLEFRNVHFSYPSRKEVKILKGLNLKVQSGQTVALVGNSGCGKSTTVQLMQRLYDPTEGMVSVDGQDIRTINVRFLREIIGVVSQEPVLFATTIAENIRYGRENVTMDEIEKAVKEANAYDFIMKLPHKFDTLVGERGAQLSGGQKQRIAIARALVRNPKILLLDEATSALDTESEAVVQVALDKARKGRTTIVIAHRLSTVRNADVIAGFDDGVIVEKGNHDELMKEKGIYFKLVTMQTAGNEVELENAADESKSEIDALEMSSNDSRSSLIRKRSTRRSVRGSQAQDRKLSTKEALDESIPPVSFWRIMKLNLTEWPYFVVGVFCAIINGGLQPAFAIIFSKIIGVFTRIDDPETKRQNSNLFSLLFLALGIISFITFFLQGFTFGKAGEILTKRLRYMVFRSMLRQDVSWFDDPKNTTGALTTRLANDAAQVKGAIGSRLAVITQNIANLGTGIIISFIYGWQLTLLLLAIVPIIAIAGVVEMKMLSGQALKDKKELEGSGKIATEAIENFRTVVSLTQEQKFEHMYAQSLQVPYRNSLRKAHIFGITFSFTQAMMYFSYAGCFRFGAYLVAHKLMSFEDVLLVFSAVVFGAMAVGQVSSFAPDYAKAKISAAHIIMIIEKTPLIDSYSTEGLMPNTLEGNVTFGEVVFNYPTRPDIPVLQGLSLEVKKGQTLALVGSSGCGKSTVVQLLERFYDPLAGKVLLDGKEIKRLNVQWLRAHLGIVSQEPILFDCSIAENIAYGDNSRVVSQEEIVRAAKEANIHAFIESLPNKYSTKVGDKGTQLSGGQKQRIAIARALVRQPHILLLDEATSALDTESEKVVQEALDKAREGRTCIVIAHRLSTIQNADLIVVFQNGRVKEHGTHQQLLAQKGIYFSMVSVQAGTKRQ

C[C@@H]1CN(c2c(F)c(N)c3c(=O)c(C(=O)O)cn(C4CC4)c3c2F)C[C@H](C)N1 [SPARFLOXACIN] was tested, and the Activity [1] was “substrate [+]”.
For Cc1c(F)c(N2CCNC(C)C2)cc2c1c(=O)c(C(=O)O)cn2C1CC1 (stereo not drawn) [GREPAFLOXACIN], the Activity [2] was “substrate [+]” and the Activity [1] was “substrate [+]”.
